Assay results from PubChem BioAssay (NCI).
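In this assay, cells in 96-well plates receive the compound at five concentrations for 48 hours. Endpoints are linearly interpolated between the surrounding concentrations. GI50: concentration for 50% inhibition of growth. TGI: concentration producing complete growth inhibition.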

Key:
Assay in all cases: NCI-60 cell line screen, 48 h
786-0 renal = test system: 786-0 renal
BT-549 breast = test system: BT-549 breast
COLO 205 colon = test system: COLO 205 colon
HOP-62 NSCLC = test system: HOP-62 NSCLC
MDA-MB-231 breast = test system: MDA-MB-231 breast
NCI-H23 lung = test system: NCI-H23 lung
NCI-H522 lung = test system: NCI-H522 lung
PC-3 prostate = test system: PC-3 prostate
SN12C renal = test system: SN12C renal
SW-620 colon = test system: SW-620 colon

Row | Compound | GI50 (786-0 renal) [µM] | TGI (786-0 renal) [µM] | GI50 (BT-549 breast) [µM] | TGI (BT-549 breast) [µM] | GI50 (COLO 205 colon) [µM] | TGI (COLO 205 colon) [µM] | GI50 (HOP-62 NSCLC) [µM] | TGI (HOP-62 NSCLC) [µM] | GI50 (MDA-MB-231 breast) [µM] | TGI (MDA-MB-231 breast) [µM] | GI50 (NCI-H23 lung) [µM] | TGI (NCI-H23 lung) [µM] | GI50 (NCI-H522 lung) [µM] | TGI (NCI-H522 lung) [µM] | GI50 (PC-3 prostate) [µM] | TGI (PC-3 prostate) [µM] | GI50 (SN12C renal) [µM] | TGI (SN12C renal) [µM] | GI50 (SW-620 colon) [µM] | TGI (SW-620 colon) [µM]
1 | O=C(CNc1ncco1)Nc1ccc(S(=O)(=O)c2ccc(NC(=O)CNc3ncco3)cc2)cc1 | 3.95 | 18.3 | 2.09 | 6.26 | 1.75 | 3.55 | 2.07 | 4.09 | 2.66 | 7.38 | 2.46 | 9.51 | 1.48 | 3.14 | 2.49 | 8.32 | 3.77 | 14.7 | 1.75 | 4.13
2 | COc1cc(NCc2ccccc2O)c2ncccc2c1 | 29.8 | > 100 | 16.6 | 55 | 19.7 | 77.2 | 19.7 | > 100 | 14.3 | > 100 | 22.5 | 97.3 | 10.1 | 43 | 10.6 | 90.6 | 34 | > 100 | 32.2 | > 100
3 | C=C1CC2(CCCC3(CC(=C)C(=O)O3)C2(C)C)OC1=O (stereo not given) | – | 11.4 | – | 17 | – | 4.61 | – | 30.8 | – | 17.7 | – | 12.1 | – | 3.7 | – | 21.1 | – | 10.7 | – | 4.26
4 | CCCCCCC#CC#Cc1cccc(=O)o1 | 0.991 | 2.72 | 0.556 | 2.7 | 9.5 | 20 | 2.65 | 8.48 | 1.64 | 3.72 | 0.848 | 2.25 | 1.8 | 27.8 | 2.67 | 8.36 | 1.31 | 2.97 | 0.974 | 2.78
5 | CCCCCCNc1nc(N2CCOCC2)c2[nH]c(NCCCCCC)nc2n1 | 1.8 | 3.19 | 1.66 | 3.04 | 1.89 | 3.6 | 1.67 | 3.27 | 1.81 | 3.3 | 1.35 | 2.63 | 1.58 | 3.37 | 1.68 | 3.54 | 1.76 | 3.32 | 1.44 | 2.76
